For the experiment, the system named is 3T3-L1 cells. In words: Lipid accumulation evaluation, Oil red O staining of MDI-differentiated adipocytes. Type of experiment: cell-based. The note with it: 5 mM; DMSO-only sample = 100%; absorbance at 500 nm. As for the experimental part: For induction of 3T3-L1 cells into adipocytes, the cells were treated with MDI (5 μg/ml insulin, 0.5 mM IBMX, and 1.0 μM dexamethasone) in DMEM containing 10% FBS and 1% penicillin-streptomycin, followed by induction of differentiation for 2 days. The differentiated 3T3-L1 cells were washed with physiological buffered saline (PBS), and then fixed with 10% formalin for 1 hour. The fixed cells were washed twice with ddH2O, treated with 60% isopropanol for 5 minutes, and then stained with Oil red O solution (dissolved in 60% isopropanol) for 10 minutes. After staining, the cells were washed four times with ddH2O, and de-stained with 100% isopropanol for 10 minutes, and then the cells were observed using a microscope and measured for absorbance at 500 nm.
The result of the sample treated with only DMSO used as a solvent was converted to 100%, and quantitatively measured for lipids.

Molecules are shown by their SMILES.

`CC(=O)N[C@@H](CS)C(=O)O` [n-acetyl cysteine]: the lipid accumulation stood at 20.6±3.7%.

The values are drawn from patent US11291704B2, “Composition for preventing or treating obesity containing ethanolic extract of Ramulus mori” (Korea University Research and Business Foundation, priority 2016, dated 2022).
